Patent US8772504B2, “Substituted benzoxazole, benzimidazole, oxazolopyridine and imidazopyridine derivatives as gamma secretase modulators” (Janssen Pharmaceuticals, Inc., priority 2009, dated 2014)

Experiments:
Format in all cases: cell-based
Aβ42 [1] = test: Screening for γ-secretase-modulating activity, Method 1: Aβ42 sandwich ELISA on SKNBE2 cell media; conditions: SKNBE2 cells carrying APP 695 wild type
How it was run: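 SKNBE2 cells expressing wild-type APP695 were treated with compound for 18 h in Ultraculture/1% glutamine. Secreted Aβ42 was quantified by sandwich ELISA (C-terminal capture, biotinylated 3D6, TMB, 450 nm), with WST-1 used as a toxicity check. IC50 was derived from 4-parameter fits of % inhibition or % of untreated control.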

Aβ42 [2] = test: Screening for γ-secretase-modulating activity, Method 2: Aβ42 Alphalisa on SKNBE2 cell supernatant; conditions: Method 2, Table 3c, SKNBE2 cells carrying APP 695 wild type, overnight incubation
Experimental: (§1) Screening was carried out using SKNBE2 cells carrying the APP 695—wild type, grown in Dulbecco's Modified Eagle's Medium/Nutrient mixture F-12 (DMEM/NUT-mix F-12) (HAM) provided by Invitrogen (cat no. 10371-029) containing 5% Serum/Fe supplemented with 1% non-essential amino acids, 1-glutamine 2 mM, Hepes 15 mM, penicillin 50 U/ml (units/ml) en streptomycin 50 μg/ml. Cells were grown to near confluency.
(§2) The screening was performed using a modification of the assay as described in Citron et al (1997) Nature Medicine 3: 67. Briefly, cells were plated in a 384-well plate at 10^4 cells/well in Ultraculture (Lonza, BE12-725F) supplemented with 1% glutamine (Invitrogen, 25030-024), 1% non-essential amino acid (NEAA), penicillin 50 U/ml en streptomycin 50 μg/ml in the presence of test compound at different test concentrations. The cell/compound mixture was incubated overnight at 37° C., 5% CO2. The next day the media were assayed by two sandwich immuno-assays, for Aβ42 and Aβtotal.
(§3) Aβtotal and Aβ42 concentrations were quantified in the cell supernatant using the Aphalisa technology (Perkin Elmer). Alphalisa is a sandwich assay using biotinylated antibody attached to streptavidin coated donorbeads and antibody conjugated to acceptor beads. In the presence of antigen, the beads come into close proximity. The excitation of the donor beads provokes the release of singlet oxygen molecules that trigger a cascade of energy transfer in the acceptor beads, resulting in light emission. To quantify the amount of Aβ42 in the cell supernatant, monoclonal antibody specific to the C-terminus of Aβ42 (JRF/cAβ42/26) was coupled to the receptor beads and biotinylated antibody specific to the N-terminus of Aβ (JRF/AβN/25) was used to react with the donor beads. To quantify the amount of Aβtotal in the cell supernatant, monoclonal antibody specific to the N-terminus of Aβ (JRF/AβN/25) was coupled to the receptor beads and biotinylated antibody specific to the mid region of Aβ (biotinylated 4G8) was used to react with the donor beads.
(§4) To obtain the values reported in Table 3c, the data were calculated as percentage of the maximum amount of amyloid Beta 42 measured in the absence of the test compound. The sigmoidal dose response curves were analyzed using non-linear regression analysis with percentage of the control plotted against the log concentration of the compound. A 4-parameter equation was used to determine the IC50.

Aβtotal [3] = test: Screening for γ-secretase-modulating activity, Method 1: Aβtotal sandwich ELISA on SKNBE2 cell media; conditions: SKNBE2 cells carrying APP 695 wild type
Experimental: as §1, with “Gibco” for “Invitrogen”, “31330-38)” for “10371-029)”, “acids.” for “acids, 1-glutamine 2 mM, Hepes 15 mM, penicillin 50 U/ml (units/ml) en streptomycin 50 μg/ml.”
The screening was performed using the assay as described in Citron et al (1997) Nature Medicine 3: 67. Briefly, cells were plated in a 96-well plate at about 10^5 cells/ml one day prior to addition of compounds. Compounds were added to the cells in Ultraculture (Lonza, BE12-725F) supplemented with 1% glutamine (Invitrogen, 25030-024) for 18 hours. The media were assayed by two sandwich ELISAs, for Aβ42 and Aβtotal. Toxicity of the compounds was assayed by WST-1 cell proliferation reagent (Roche, 1 644 807) according to the manufacturer's protocol.
To quantify the amount of Aβtotal in the cell supernatant, samples and standards were added to a 6E10-coated plate. The plate was allowed to incubate overnight at 4° C. in order to allow formation of the antibody-amyloid complex. Following this incubation and subsequent wash steps a selective anti-Aβ-antibody conjugate (biotinylated 4G8) was added and incubated for a minimum of 1 hour in order to allow formation of the antibody-Amyloid-antibody-complex. After incubation and appropriate wash steps, a Streptavidine-Peroxidase-Conjugate was added, followed 30 minutes later by an addition of Quanta Blu fluorogenic peroxidase substrate according to the manufacturer's instructions (Pierce Corp., Rockford, Ill.).
To obtain the values reported in Table 3a, the sigmoidal dose response curves were analysed by computerised curve-fitting, with percent of inhibition plotted against compound concentration. A 4-parameter equation (model 205) in XLfit was used to determine the IC50. The top and the bottom of the curve were fixed to 100 and 0, respectively, and the hill slope was fixed to 1. The IC50 represents the concentration of a compound that is required for inhibiting a biological effect by 50% (Here, it is the concentration where Aβ peptide level is reduced by 50%).
as §4, with “3b,” for “3c,”, “IC50. The values reported in Table 3b are averaged IC50 values.” for “IC50.”

Aβtotal [4] = test: Screening for γ-secretase-modulating activity, Method 2: Aβtotal Alphalisa on SKNBE2 cell supernatant; conditions: Method 2, Table 3c, SKNBE2 cells carrying APP 695 wild type, overnight incubation
Experimental: as §1, §2, §3, §4

[5] = Homo sapiens, Table 3a, 18 hours, XLfit, top/bottom fixed to 100 and 0, hill slope 1
[6] = Homo sapiens, Table 3b, non-linear regression of % of control, averaged IC50 values
[7] = Table 3a, 18 hours, XLfit, top/bottom fixed to 100 and 0, hill slope 1
[8] = Table 3b, non-linear regression of % of control, averaged IC50 values

IC50 (Aβ42 [1]; [5]) [µM] | IC50 (Aβ42 [1]; [6]) [µM] | IC50 (Aβ42 [2]; Homo sapiens) [µM] | IC50 (Aβtotal [3]; [5]) [µM] | IC50 (Aβtotal [3]; [6]) [µM] | IC50 (Aβtotal [4]; Homo sapiens) [µM] | IC50 (Aβ42 [1]; [7]) [µM] | IC50 (Aβ42 [1]; [8]) [µM] | IC50 (Aβ42 [2]) [µM] | IC50 (Aβtotal [3]; [7]) [µM] | IC50 (Aβtotal [3]; [8]) [µM] | IC50 (Aβtotal [4]) [µM] | Compound
– | – | – | – | – | – | < 0.11 | < 0.11 | 0.151 | > 3 | > 3 | > 10 | COc1cc(Nc2cccc3c2nc(C)n3Cc2ccccc2)ccc1-n1cnc(C)c1 [Compound 22]
– | – | – | – | – | – | 0.024 | 0.022 | 0.06 | > 1 | > 10 | > 10 | CCn1c(CCC(F)(F)F)nc2c(Nc3ccc(-n4cnc(C)c4)c(OC)c3)cccc21 [Compound 35]
– | – | – | – | – | – | 1.95 | 1.95 | > 3 | > 3 | > 3 | > 3 | COc1cc(Nc2cccc3oc(C4CCN(C)CC4)nc23)ccc1-n1cnc(C)c1 [Compound 40]
– | – | – | – | – | – | 0.053 | 0.058 | 0.079 | > 3 | > 3 | > 10 | COc1cccc(-c2nc3c(Nc4ccc(-n5cnc(C)n5)cc4)cccc3n2C(C)C)c1 [Compound 51]
– | – | – | – | – | – | < 0.11 | < 0.11 | 0.1 | > 3 | > 3 | > 10 | COc1cc(Nc2cccc3c2nc(-c2ccc(F)cc2)n3C(C)(C)C)ccc1-n1cnc(C)n1 [Compound 78]
– | – | – | – | – | – | > 3 | > 3 | > 10 | > 3 | > 3 | > 10 | COc1cc(Nc2cccc3oc(-c4cccnc4)nc23)ccc1-n1cnc(C)c1 [Compound 86]
– | – | – | – | – | – | 0.839 | 0.871 | 1.29 | > 3 | > 3 | 8.13 | Cc1ncn(-c2c(F)cc(Nc3cccc4c3nc(-c3ccc(F)cc3)n4C)cc2F)n1 [Compound 102]
– | – | – | – | – | – | 0.087 | 0.089 | 0.102 | – | – | > 10 | Cc1ncn(-c2ccc(Nc3cccc4c3nc(-c3ccc(F)cc3)n4C)cc2)n1 [Compound 103]
– | – | – | – | – | – | – | > 3 | 9.77 | – | – | > 10 | COc1cc(Nc2cccc3c2nc(C2CCOCC2)n3C(C)C)ccc1-n1cnc(C)n1 [Compound 120]
– | – | – | – | – | – | – | 0.316 | 0.195 | – | > 10 | 9.77 | COc1nc(Nc2nc(C)cc3c2nc(-c2ccccc2Cl)n3C)ccc1-n1cnc(C)c1 [Compound 149]

Further lines, the compound ahead of its results:

Compound | IC50 (Aβ42 [1]; [5]) [µM] | IC50 (Aβ42 [1]; [6]) [µM] | IC50 (Aβ42 [2]; Homo sapiens) [µM] | IC50 (Aβtotal [3]; [5]) [µM] | IC50 (Aβtotal [3]; [6]) [µM] | IC50 (Aβtotal [4]; Homo sapiens) [µM] | IC50 (Aβ42 [1]; [7]) [µM] | IC50 (Aβ42 [1]; [8]) [µM] | IC50 (Aβ42 [2]) [µM] | IC50 (Aβtotal [3]; [7]) [µM] | IC50 (Aβtotal [3]; [8]) [µM] | IC50 (Aβtotal [4]) [µM]
COc1cc(Nc2cccc3c2nc(-c2ccc(F)cc2)n3C(C)C)ccc1-n1cnc(C)c1 [Compound 2] | 0.012 | 0.012 | 0.009 | > 1 | > 1 | 9.33 | – | – | – | – | – | –
COc1cc(Nc2cccc3c2nc(CC2CCNCC2)n3C)ccc1-n1cnc(C)c1 [Compound 9] | 0.6 | 0.603 | > 3 | > 3 | > 3 | > 3 | – | – | – | – | – | –
Cc1ncn(-c2ccc(Nc3cccc4c3nc(C)n4C(C)C)cc2)n1 [Compound 20] | – | – | – | – | – | – | > 3 | > 3 | > 3 | > 3 | > 3 | > 3
Cc1ncn(-c2ccc(Nc3cccc4c3nc(C)n4Cc3ccccc3)cc2)n1 [Compound 23] | – | – | – | – | – | – | 1.91 | 1.86 | > 3 | > 10 | > 10 | > 3
COc1cc(Nc2cccc3c2nc(SCC(C)C)n3C)ccc1-n1cnc(C)c1 [Compound 33] | – | – | – | – | – | – | < 0.11 | < 0.11 | 0.245 | > 3 | > 3 | > 10
COc1cc(Nc2cccc3oc(C4CCN(C(C)=O)CC4)nc23)ccc1-n1cnc(C)c1 [Compound 41] | – | – | – | – | – | – | > 3 | > 3 | 7.59 | > 3 | > 3 | > 10
COc1cccc(-c2nc3c(Nc4ccc(-n5cnc(C)c5)c(OC)c4)cccc3n2C)c1 [Compound 49] | – | – | – | – | – | – | 0.02 | 0.028 | 0.013 | > 1 | > 3 | > 10
CCOc1cc(C)c(-c2nc3c(Nc4ccc(-n5cnc(C)n5)c(OC)c4)cccc3o2)cc1C(C)C [Compound 59] | – | – | – | – | – | – | 7.3 | 7.76 | > 3 | 26.4 | > 30 | > 3
COc1cc(Nc2cccc3c2nc(-c2ccccc2F)n3C)ccc1-n1cnc(C)c1 [Compound 66] | – | – | – | – | – | – | 0.027 | 0.024 | 0.021 | > 3 | > 3 | > 10
Cc1cn(-c2ccc(Nc3cccc4c3nc(-c3ccc(F)cc3)n4C)cn2)cn1 [Compound 68] | – | – | – | – | – | – | 0.027 | 0.026 | 0.035 | > 1 | > 1 | > 10
Cc1ncn(-c2ccc(Nc3cccc4oc(CC(C)C)nc34)nc2)n1 [Compound 87] | – | – | – | – | – | – | > 3 | > 3 | > 10 | > 3 | – | > 10
Cc1ncn(-c2ccc(Nc3cccc4c3nc(-c3ccc(F)cc3)n4C(C)C)nc2)n1 [Compound 89] | – | – | – | – | – | – | 0.326 | 0.324 | 0.575 | > 3 | > 3 | > 10
COc1nc(Nc2cccc3c2nc(-c2ccc(F)cc2)n3C(C)C)ccc1-n1cnc(C)c1 [Compound 116] | – | – | – | – | – | – | – | 0.01 | 0.004 | – | – | 6.61
COc1cc(Nc2cccc3c2nc(-c2ccc(C(F)(F)F)nc2)n3C(C)C)ccc1-n1cnc(C)c1 [Compound 117] | – | – | – | – | – | – | – | 0.033 | 0.028 | – | > 3 | > 10
COc1cc(Nc2cccc3c2nc(-c2ccc(Cl)s2)n3C(C)C)ccc1-n1cnc(C)n1 [Compound 121] | – | – | – | – | – | – | – | 0.02 | 0.034 | – | > 3 | > 10
Cc1ncn(-c2ccc(Nc3nccc4c3nc(-c3ccc(F)cc3F)n4C)c(F)c2)n1 [Compound 129] | – | – | – | – | – | – | – | > 3 | > 10 | – | – | > 10
Cc1cn(-c2ccc(Nc3nccc4c3nc(-c3ccc(F)cc3)n4C)cc2F)cn1 [Compound 137] | – | – | – | – | – | – | – | 0.05 | 0.021 | – | > 3 | > 10
